33 molecules from patent US20130303509A1, “NAMPT INHIBITORS” (AbbVie Inc., priority 2012, published 2013) can be followed below.

One may read the IC50 as the concentration needed to halve the response being measured. Higher therefore signals weaker potency.

Where only a bound is given, the exact number is not on record here.

The test system of the test is PC3 cells. The test is described as follows: NAMPT Cell Proliferation Assay. It counts as cell-based. As to conditions: Homo sapiens, PC-3, 120 h, 5 days incubation, cell viability by Cell Titer Glo. An outline of the steps:
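Five-day CellTiter-Glo viability readout in PC3 cells grown in RPMI/10% heat-inactivated FBS. Compounds added after overnight attachment as a 10-fold dilution series, […]. Percent inhibition fitted to sigmoidal dose-response to derive IC50.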
(Cellular ATP, detected with luciferase, serves as a proxy for viable cell number.)
`C=CCCC(=O)N1CCC(c2ccc(NC(=O)[C@H]3CCN(c4cccnn4)C3)cc2)CC1` [Example 700, (3S)-N-{4-[1-(pent-4-enoyl)piperidin-4-yl]phenyl}-1-(pyridazin-3-yl)pyrrolidine-3-carboxamide] returned an IC50 of 8.76 nM.
Consider `Cc1ccc(N2CC(C(=O)Nc3ccc(C4CCN(C(=O)c5ccccc5F)CC4)cc3)C2)nn1` [Example 851, N-{4-[1-(2-fluorobenzoyl)piperidin-4-yl]phenyl}-1-(6-methylpyridazin-3-yl)azetidine-3-carboxamide], for which inhibition was half-maximal at 2.75 nM (IC50).
Take `O=C(Nc1ccc(C2CCN(C(=O)c3cc(C(F)(F)F)ccc3Cl)CC2)cc1)[C@H]1CCN(c2cccnn2)C1` [Example 690, (3S)-N-(4-{1-[2-chloro-5-(trifluoromethyl)benzoyl]piperidin-4-yl}phenyl)-1-(pyridazin-3-yl)pyrrolidine-3-carboxamide]: the IC50 came out at 3.14 nM.
`O=C(Nc1ccc(S(=O)(=O)C2CCN(C(=O)c3cccc(Cl)c3)CC2)cc1)C1CN(c2cccnn2)C1` [Example 564, N-(4-{[1-(3-chlorobenzoyl)piperidin-4-yl]sulfonyl}phenyl)-1-(pyridazin-3-yl)azetidine-3-carboxamide] had an IC50 of 79.2 nM.
To `CC(C)C(=O)N1CCC(c2ccc(C(=O)N[C@H]3CCN(c4ccc(Cl)nn4)C3)cc2)CC1` [Example 749, N-[(3S)-1-(6-chloropyridazin-3-yl)pyrrolidin-3-yl]-4-[1-(2-methylpropanoyl)piperidin-4-yl]benzamide] belongs over 10000 nM; to `O=C(Nc1ccc(C2CCN(C(=O)C3CC3)CC2)cc1)C1CN(c2cccnn2)C1` [Example 411, N-{4-[1-(cyclopropylcarbonyl)piperidin-4-yl]phenyl}-1-(pyridazin-3-yl)azetidine-3-carboxamide], 7.15 nM; to `COCC(=O)N1CCC(c2ccc(NC(=O)C3CN(c4cccnc4C)C3)cc2)CC1` [Example 195, N-{4-[1-(methoxyacetyl)piperidin-4-yl]phenyl}-1-(2-methylpyridin-3-yl)azetidine-3-carboxamide], 701 nM.
To `CC(C)c1ccc(C(=O)N2CCC(S(=O)(=O)c3ccc(NC(=O)C4CN(c5cccnn5)C4)cc3)CC2)cc1` [Example 572, N-[4-({1-[4-(propan-2-yl)benzoyl]piperidin-4-yl}sulfonyl)phenyl]-1-(pyridazin-3-yl)azetidine-3-carboxamide] belongs 59.8 nM; to `CC(C)Cn1cc(-c2ccc(C(=O)N[C@H]3CCN(c4cccnn4)C3)s2)cn1` [Example 606, 5-[1-(2-methylpropyl)-1H-pyrazol-4-yl]-N-[(3S)-1-(pyridazin-3-yl)pyrrolidin-3-yl]thiophene-2-carboxamide], 86.7 nM.
To `CCC(C)(C)CN1CCC(Oc2ccc(NC(=O)C3CN(c4cccnc4)C3)cc2)CC1` [Example 84, N-(4-{[1-(2,2-dimethylbutyl)piperidin-4-yl]oxy}phenyl)-1-(pyridin-3-yl)azetidine-3-carboxamide] belongs 38.9 nM; to `O=C(Nc1ccc(C2CCN(C(=O)Cc3ccc(Cl)cc3)CC2)cc1)C1CN(c2cccnn2)C1` [Example 370, N-(4-{1-[(4-chlorophenyl)acetyl]piperidin-4-yl}phenyl)-1-(pyridazin-3-yl)azetidine-3-carboxamide], 8.79 nM.
The molecule `CC(C)CCC(=O)N1CCC(S(=O)(=O)c2ccc(NC(=O)C3CN(c4cccnn4)C3)cc2)CC1` [Example 612, N-(4-{[1-(4-methylpentanoyl)piperidin-4-yl]sulfonyl}phenyl)-1-(pyridazin-3-yl)azetidine-3-carboxamide] yielded an IC50 of 53.6 nM.
In the case of `O=C(Nc1ccc(C2CCN(C(=O)CC3CCCCC3)CC2)cc1)C1CN(c2cccnn2)C1` [Example 340, N-{4-[1-(cyclohexylacetyl)piperidin-4-yl]phenyl}-1-(pyridazin-3-yl)azetidine-3-carboxamide], the midpoint of inhibition, the IC50, lay at 2.42 nM.
Molecule `CC(C)(C(=O)N1CCC(c2ccc(NC(=O)C3CN(c4ccnnc4)C3)cc2)CC1)c1ccccc1` [Example 546, N-{4-[1-(2-methyl-2-phenylpropanoyl)piperidin-4-yl]phenyl}-1-(pyridazin-4-yl)azetidine-3-carboxamide] gave an IC50 of 1.41 nM.
The molecule `CCOCC(=O)N1CCC(c2ccc(NC(=O)[C@H]3CCN(c4cccnn4)C3)cc2)CC1` [Example 635, (3S)-N-{4-[1-(ethoxyacetyl)piperidin-4-yl]phenyl}-1-(pyridazin-3-yl)pyrrolidine-3-carboxamide] displayed an IC50 of 41.6 nM.
To `CC[C@H](C)C(=O)N1CCC(Oc2ccc(NC(=O)C3CN(c4cccnc4)C3)cc2)CC1` [Example 32, N-[4-({1-[(2S)-2-methylbutanoyl]piperidin-4-yl}oxy)phenyl]-1-(pyridin-3-yl)azetidine-3-carboxamide] belongs 6.54 nM; to `O=C(Nc1ccc(C2CCN(C(=O)c3cccc(C(F)(F)F)c3)CC2)cc1)C1CN(c2cccnn2)C1` [Example 354, 1-(pyridazin-3-yl)-N-(4-{1-[3-(trifluoromethyl)benzoyl]piperidin-4-yl}phenyl)azetidine-3-carboxamide], 7.51 nM; to `O=C(Nc1ccc(C2CCN(C(=O)C3CCOC3)CC2)cc1)[C@H]1CCN(c2cccnn2)C1` (stereo partly drawn) [Example 638, (3S)-1-(pyridazin-3-yl)-N-{4-[1-(tetrahydrofuran-3-ylcarbonyl)piperidin-4-yl]phenyl}pyrrolidine-3-carboxamide], 29.9 nM.
The result for `CCOCCC(=O)N1CCC(Oc2ccc(NC(=O)C3CN(c4cccnc4)C3)cc2)CC1` [Example 39, N-(4-{[1-(3-ethoxypropanoyl)piperidin-4-yl]oxy}phenyl)-1-(pyridin-3-yl)azetidine-3-carboxamide] reads 7.38 nM.
`Cc1ncccc1N1CC(C(=O)Nc2ccc(C3CCN(C(=O)c4ccccc4)CC3)cc2)C1` [Example 149, N-[4-(1-benzoylpiperidin-4-yl)phenyl]-1-(2-methylpyridin-3-yl)azetidine-3-carboxamide] returned a half-maximal inhibitory concentration (IC50) of 58 nM.
`O=C(Nc1ccc(O[C@@H]2CCN(C(=O)CC(F)(F)F)C2)cc1)C1CN(c2ccnnc2)C1` [Example 479, 1-(pyridazin-4-yl)-N-(4-{[(3R)-1-(3,3,3-trifluoropropanoyl)pyrrolidin-3-yl]oxy}phenyl)azetidine-3-carboxamide] came in with an IC50 of 68.9 nM.
The result for `CC(C)(C)C(=O)N1CCC(c2ccc(NC(=O)[C@@H]3CCN(c4cccnn4)C3)cc2)CC1` [Example 795, (3R)—N-{4-[1-(2,2-dimethylpropanoyl)piperidin-4-yl]phenyl}-1-(pyridazin-3-yl)pyrrolidine-3-carboxamide] reads 773 nM.
Turning to `Cc1ncccc1N1CC(C(=O)Nc2ccc(C3CCN(C(=O)c4ccc(F)cc4)CC3)cc2)C1` [Example 155, N-{4-[1-(4-fluorobenzoyl)piperidin-4-yl]phenyl}-1-(2-methylpyridin-3-yl)azetidine-3-carboxamide], the IC50 came out at 701 nM.
The result for `O=C(Nc1ccc(OC2CCN(C(=O)[C@H]3CCCO3)CC2)cc1)[C@H]1CCN(c2cccnc2)C1` [Example 14, (3S)-1-(pyridin-3-yl)-N-[4-({1-[(2R)-tetrahydrofuran-2-ylcarbonyl]piperidin-4-yl}oxy)phenyl]pyrrolidine-3-carboxamide] reads 54.8 nM.
Regarding `O=C(Nc1ccc(C2CCN(C(=O)CC3C[C@@H]4CC[C@H]3C4)CC2)cc1)C1CN(c2cccnc2)C1` (stereo partly drawn) [Example 100, N-(4-{1-[(1S,4R)-bicyclo[2.2.1]hept-2-ylacetyl]piperidin-4-yl}phenyl)-1-(pyridin-3-yl)azetidine-3-carboxamide], the IC50 is 6.13 nM.
On to `CCOCC(=O)N1CCC(c2ccc(NC(=O)C3CN(c4cccnc4)C3)cc2)CC1` [Example 131, N-{4-[1-(ethoxyacetyl)piperidin-4-yl]phenyl}-1-(pyridin-3-yl)azetidine-3-carboxamide], for which the IC50 stood at 0.3 nM.
The molecule `O=C(Nc1ccc(OC2CCN(C(=O)CC3CCCCC3)CC2)cc1)C1CN(c2cccnc2)C1` [Example 50, N-(4-{[1-(cyclohexylacetyl)piperidin-4-yl]oxy}phenyl)-1-(pyridin-3-yl)azetidine-3-carboxamide] registered an IC50 of 8.95 nM.
The result for `CCC(C)(C)C(=O)N1CCC(c2ccc(NC(=O)[C@H]3CCN(c4cccnn4)C3)cc2)CC1` [Example 718, (3S)-N-{4-[1-(2,2-dimethylbutanoyl)piperidin-4-yl]phenyl}-1-(pyridazin-3-yl)pyrrolidine-3-carboxamide] reads 6.27 nM; that for `CC(C)Cn1cc(-c2ccc(C(=O)N[C@@H]3CCN(c4ccnnc4)C3)s2)cn1` [Example 604, 5-[1-(2-methylpropyl)-1H-pyrazol-4-yl]-N-[(3R)-1-(pyridazin-4-yl)pyrrolidin-3-yl]thiophene-2-carboxamide], 8260 nM; that for `Cc1ncccc1N1CC(C(=O)Nc2ccc(C3CCN(C(=O)CC4CCCCC4)CC3)cc2)C1` [Example 179, N-{4-[1-(cyclohexylacetyl)piperidin-4-yl]phenyl}-1-(2-methylpyridin-3-yl)azetidine-3-carboxamide], 192 nM.
The result for `O=C(Nc1ccc(C2CCN(C(=O)c3cc(F)cc(F)c3)CC2)cc1)C1CN(c2cccnn2)C1` [Example 400, N-{4-[1-(3,5-difluorobenzoyl)piperidin-4-yl]phenyl}-1-(pyridazin-3-yl)azetidine-3-carboxamide] reads 6.8 nM.
The result for `CO[C@H](C(=O)N1CCC(c2ccc(NC(=O)[C@H]3CCN(c4cccnn4)C3)cc2)CC1)c1ccccc1` [Example 633, (3S)-N-(4-{1-[(2S)-2-methoxy-2-phenylacetyl]piperidin-4-yl}phenyl)-1-(pyridazin-3-yl)pyrrolidine-3-carboxamide] reads 8.95 nM; that for `Cc1ccc(C(=O)N2CCC(c3ccc(NC(=O)C4CN(c5cccnn5)C4)cc3)CC2)cn1` [Example 434, N-(4-{1-[(6-methylpyridin-3-yl)carbonyl]piperidin-4-yl}phenyl)-1-(pyridazin-3-yl)azetidine-3-carboxamide], 6.35 nM.
